# Test results as given in ChEMBL document CHEMBL1129049, “Structure-activity analysis of anandamide analogs: relationship to a cannabinoid pharmacophore” (1996).
# What was measured:
# Mus musculus [1] = species: Mus musculus; experiment: Effective dose required to increase tail-flick latency in mice; type: functional
# Mus musculus [2] = species: Mus musculus; experiment: Effective dose required to inhibit spontaneous locomotor activity in mice; type: functional
Structure (SMILES),ED50 (Mus musculus [1]),ED50 (Mus musculus [2])
CCCCC/C=C\C/C=C\C/C=C\C/C=C\CCCC(=O)NCCF,190 µmol/kg,57.2 µmol/kg
CCCCC/C=C\C/C=C\C/C=C\C/C=C\CCCC(=O)N1CCOCC1,25.4 µmol/kg,20.7 µmol/kg
CCCCC/C=C\C/C=C\C/C=C\C/C=C\CCCC(=O)NCCCCCO,72.9 µmol/kg,49.5 µmol/kg
CCCCC/C=C\C/C=C\C/C=C\C/C=C\CCCC(=O)NCCO [ANANDAMIDE],17.4 µmol/kg,50.3 µmol/kg
CCCCC/C=C\C/C=C\C/C=C\C/C=C\CCCC(=O)NCCOC,–,186 µmol/kg
CCCCC/C=C\C/C=C\C/C=C\C/C=C\CCCC(=O)NCCCO,61.4 µmol/kg,43.7 µmol/kg
CCCCC/C=C\C/C=C\C/C=C\C/C=C\CCC(C)(C)C(=O)NCCO,49.6 µmol/kg,30.5 µmol/kg
CCCCC/C=C\C/C=C\C/C=C\C/C=C\CCCC(=O)NCCOc1ccccc1,74.1 µmol/kg,23 µmol/kg
